Results taken from patent EP1105728B1, “MODULATING MULTIPLE LINEAGE KINASE PROTEINS” (CEPHALON, INC., priority 1998, dated 2000).
Where two headings read alike, the source gives them in different places.

Assays:
[1] = tested on: ciliary ganglion (CG) neurons; experiment: Survival of chick embryonic ciliary ganglion neurons; type: cell-based
Experimental: Paravertebral sympathetic ganglia (SG; embryonal day 12 (E12)), dorsal root ganglia (DRG;E9), and ciliary ganglia (CG;E8) were dissected from chick embryos at the indicated embryonic day as described in Lindsay, et al., Dev. Biol., 1985, 112, 319-328, which is incorporated herein by reference in its entirety. After trypsinization and dissociation, the nerve cell suspensions were plated onto polyomithine-laminin-coated culture dishes in Ham's F14 culture medium, supplemented with 10% horse serum. Immediately after plating, survival factors were added at the following concentrations: Nerve growth factor (NGF), 20 ng/ml; ciliary neutrophic factor (CNTF), 10 ng/ml. The cultures were maintained at 37° and 5% CO2 in a humidified environment.
Neurons were plated in 35 mm culture dishes with grids (Nunc). […] Cell survival was confirmed by vital staining with trypan blue (not shown).

IL-1 = experiment: Induction of IL-1 by LPS in THP-1 cells (ELISA); type: cell-based
Experimental: THP-1 cells were grown in RPMI 1640 medium supplemented with 10% fetal bovine serum. LPS (E.coli serotype 0111.B4, TCA extracted) was purchased from Sigma and dissolved in PBS. ELISA kits for assaying IL-1 and TNF-α were purchased from Boerhinger-Mannheim and assays on THP-1 culture medium were performed as directed by the manufacturer. Standard curves according to directions were obtained with each assay.
Experiments were performed in 12 well culture plates with either 1 or 2 ml of THP-1 cells at 4 X 10^5 cells/ml. IL-1 and TNF-α were induced by the addition of LPS to the culture medium and the medium collected at various times thereafter for cytokine assay. Cells were removed by centrifugation and the supernatants frozen at -70°C until assay. To minimize costs experiments were performed in duplicate cultures and the duplicate supernatants were pooled after centrifugation. Each pooled supernatant was assayed in duplicate. Stock solutions of indolo- and fused pyrrolocarbazoles in 100% DMSO were diluted to the desired concentrations in either medium containing 10% fetal bovine serum or in medium containing 0.5 mg/ml BSA. Unless otherwise stated, compounds were added to the THP-1 cells 1 hr prior to the addition of LPS.

chick motoneurons = experiment: Survival of chick embryonic motoneurons; type: cell-based
Experimental: Motoneurons (embryonic day 5.5) were isolated with an immunological method according to the procedure set forth in Bloch-Gallego, et al., Development, 1991, 111, 221-232, which is incorporated herein by reference in its entirety, with modifications as described in Weng, et al., NeuroReport, 1996, 7, 1077-1081, which is incorporated herein by reference in its entirety. Purified motoneurons were seeded onto 35 mm tissue culture dishes (Nunc) pre-coated with poly-DL-omithine and laminin (1 µg/ml, Upstate Biotech). […] Muscle extract was supplemented at 30 µg/ml. Compound III-3 was prepared as a 4mM stock solution in DMSO and stored protected from light at 4°C. The final concentration of DMSO in treated and control cultures was 0.125%.
Neurons were plated in 35 mm culture dishes with grids (Nunc). Selected areas of each dish comprising together about 10% of the surface scanned for the presence of phase bright cells immediately after plating and again after 48 h to assess survival percentages. Cell survival was confirmed by vital staining with trypan blue (not shown).

MEKK1 = molecular target: T1, MEKK1 (Homo sapiens, UniProt Q13233); experiment: JNK activity in Cos7 cells overexpressing HA-JNK1 with MEKK1; type: cell-based; settings: 500 nM; Cos7 cells overexpressing HA-JNK1 with MEKK1 (Figure 15C)
T1 construct: expressed in transfected cells; host or cells: Cos7

SNB motor neurons = experiment: Developmentally regulated motor neuronal death in the neonatal rat (SNB); type: in vivo
Experimental: Untimed pregnant Sprague-Dawley rats were obtained from Harlan Laboratories (Indianapolis, IN). Female rat pups were injected daily, subcutaneously (SC), over the target perineal muscles, with Compound III-3 in 5% Solutol ™ HS 15 or vehicle along starting on the day of birth (P1) and continuing for 5 days (P5). On P10 or P60, pups were decapitated, blood was collected in heparinized capillary tubes, and the region of the spinal cord containing the sexually dimorphic spinal nucleus of the bulbocavemosus (SNB) and the perineal area containing the bulbocavernosus (BC) and levator ani (LA) muscles were dissected after perfusion of the animals with saline/formalin. The region of the spinal cord containing the SNB was postfixed, embedded in Paraplast, sectioned at 10µm, and stained with Cresylecht violet (Nordeen, et al., Science, 1985, 229, 671-673, which is incorporated herein by reference in its entirety). Motor neurons were counted at X500 in serial sections from the lumbar 5 to the sacral 1 region of the spinal cord as described previously (Nordeen, et al., supra). The microscopic enumeration was made on coded sections by an observer blinded to the treatment groups. Motor neuron counts were corrected for cell size and section thickness (Konisgsmark, Contemporary Research Methods in Neuroanatomy, Nauta & Ebbesson, Eds., 1970, Springer-Verlag, New York, pp.315-340, which is incorporated herein by reference in its entirety) and statistical analysis was by one-way analysis ofvariance (ANOVA). Perineal musculature was postfixed, decalcified, embedded in Paraplast, sectioned at I 0µm and stained with Milligan's Trichrome. […] The outline of muscle tissue was traced from alternate sections using a projection microscope (62.5), and the cross-sectional area was measured using a digitizing pad and a computer-based morphometry system (Sigmascan, Jandel Scientific). Muscle volume was calculated by talking the total cross-sectional area and multiplying it by the section thickness, and corrected for the percentage of the structure sampled.

T1 sequence (Q13233 whole entry, species assumed): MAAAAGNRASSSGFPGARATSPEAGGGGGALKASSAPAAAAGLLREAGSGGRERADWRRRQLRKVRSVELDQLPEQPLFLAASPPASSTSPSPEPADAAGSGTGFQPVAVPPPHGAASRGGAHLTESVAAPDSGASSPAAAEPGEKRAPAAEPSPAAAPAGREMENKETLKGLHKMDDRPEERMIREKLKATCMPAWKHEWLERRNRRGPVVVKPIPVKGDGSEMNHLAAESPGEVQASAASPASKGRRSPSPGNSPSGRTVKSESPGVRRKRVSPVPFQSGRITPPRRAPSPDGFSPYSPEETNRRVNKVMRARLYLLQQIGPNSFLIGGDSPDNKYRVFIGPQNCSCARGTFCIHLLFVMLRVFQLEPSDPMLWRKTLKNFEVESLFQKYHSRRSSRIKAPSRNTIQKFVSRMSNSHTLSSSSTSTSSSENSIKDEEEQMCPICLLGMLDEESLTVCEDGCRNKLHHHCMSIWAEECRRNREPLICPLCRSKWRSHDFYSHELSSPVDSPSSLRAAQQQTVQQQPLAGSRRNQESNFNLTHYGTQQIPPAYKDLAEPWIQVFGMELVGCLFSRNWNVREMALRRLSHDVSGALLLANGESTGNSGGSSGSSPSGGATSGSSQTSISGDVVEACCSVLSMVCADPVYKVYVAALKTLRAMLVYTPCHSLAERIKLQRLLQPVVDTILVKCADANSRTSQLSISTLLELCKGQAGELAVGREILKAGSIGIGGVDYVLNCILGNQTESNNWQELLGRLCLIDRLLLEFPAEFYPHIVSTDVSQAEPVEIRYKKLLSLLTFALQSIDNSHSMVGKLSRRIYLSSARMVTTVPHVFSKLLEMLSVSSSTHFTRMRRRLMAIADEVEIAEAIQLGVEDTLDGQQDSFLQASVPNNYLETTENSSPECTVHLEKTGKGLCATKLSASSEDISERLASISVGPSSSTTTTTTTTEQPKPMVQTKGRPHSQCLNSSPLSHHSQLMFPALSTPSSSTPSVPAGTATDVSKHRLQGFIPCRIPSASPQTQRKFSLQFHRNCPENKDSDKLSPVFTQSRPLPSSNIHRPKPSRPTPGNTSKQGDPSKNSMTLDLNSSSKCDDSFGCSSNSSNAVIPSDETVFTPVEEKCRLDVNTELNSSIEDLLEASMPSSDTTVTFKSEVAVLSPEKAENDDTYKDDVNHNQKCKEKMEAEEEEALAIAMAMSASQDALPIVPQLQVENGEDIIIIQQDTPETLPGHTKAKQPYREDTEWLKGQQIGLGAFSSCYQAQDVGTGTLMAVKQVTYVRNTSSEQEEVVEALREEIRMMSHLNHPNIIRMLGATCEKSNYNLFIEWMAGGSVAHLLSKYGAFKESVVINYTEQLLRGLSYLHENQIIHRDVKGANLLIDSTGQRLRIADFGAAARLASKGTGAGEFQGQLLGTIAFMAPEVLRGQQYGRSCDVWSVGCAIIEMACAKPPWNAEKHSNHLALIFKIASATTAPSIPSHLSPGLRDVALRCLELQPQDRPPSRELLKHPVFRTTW

SMILES: CCSCc1ccc2c(c1)c1c3c(c4c5cc(CSCC)ccc5n5c4c1n2C1CC(O)(C(=O)OC)C5(C)O1)CNC3=O (stereo not shown) [III-3]
- concentration at which the survival effect reached a plateau ([1]; 10% serum (Fig. 16)): around 1 µM
- survival of CNTF-dependent ciliary ganglion (CG) neurons ([1]; after 24 h, CNTF 10 ng/ml, 10% serum): 76%
- CG survival ([1]; after four days): 58%
- IC50 (IL-1; Homo sapiens, THP-1, THP-1 cells, medium containing 10% fetal bovine serum, read-out: IC50 inhibition of the induction of IL-1): 267 nM
- IC50 (IL-1; Homo sapiens, THP-1, THP-1 cells, serum-free medium (500 µg/ml BSA), cytokine not named, read-out: IC50 in serum-free medium): 23 nM
- IC50 (IL-1; THP-1 cells, medium containing 10% fetal bovine serum, read-out: IC50 inhibition of the induction of IL-1): 269 nM
- motoneurons survived (chick motoneurons; after 48 h, Compound III-3 300 nM, serum-free conditions, muscle extract 30 µg/ml): 79%
- motoneurons alive (chick motoneurons; after four days in culture): 56%
- concentration of maximal survival effect (chick motoneurons; serum-free conditions, higher concentrations showed a progressively reduced effect): 300 nM
- JNK pathway activated by MEKK1 (MEKK1): did not interfere with the JNK pathway
- rescued motor neurons identifiable morphologically 55 days after the last treatment (SNB motor neurons; 0.5 and 1 mg/kg per day PN 1-5, sacrifice at PN60): 100%
- enhancement in motor-neuronal survival (SNB motor neurons; 0.5 and 1 mg/kg per day sc, PN 1-5, female rats): 70%
- weight loss, mortality, gross tissue damage (SNB motor neurons; SNB model): no associated weight loss, mortality, or gross tissue damage
